# From US9834544B2, “Sweet flavor modifier” (SENOMYX, INC., priority 2011, dated 2017)
# Assays:
# Type in all cases: in vivo
# [1] = tested on: Human Panelists; experiment: Sweet flavor enhancement, human panelists, scaling test; details: 0 to 15 scale, n = 30
# Description: Test samples containing experimental compounds were compared to a dose-response curve for perceived sweetness intensity of sweeteners (sucralose, sucrose, fructose and other sweeteners) concentrations to determine equivalent sweetness intensity.
# A group of eight or more panelists tasted solutions including sweeteners at various concentrations, as well as the experimental compound both with and without added sweetener. Panelists then rated sweetness intensity of all samples on a structured horizontal line scale, anchored from 0 to 15, where 0 equals no sweetness and 15 equals equivalent sweetness to a 15% sucrose sample. Scores for sweetness intensity were averaged across panelists. Then using the average scores and/or equation of the line for the sweetener dose-response curve, equivalent sweetness concentrations were determined for the samples containing experimental compounds.
# Subjects had been previously familiarized with the key attribute taste and were trained to use the 0 to 15 point line scale. Subjects refrained from eating or drinking (except water) for at least 1 hour prior to the test. Subjects ate a cracker and rinsed with water several times to clean the mouth.
# Sweetener solutions are provided at a wide range of concentrations such as 100 ppm, 200 ppm, 300 ppm, 400 ppm, and 500 ppm for sucralose, or between 0% and 12% for sucrose or fructose, in order to create a dose-response curve. Samples containing experimental compound were prepared both alone and in a 100 ppm sucralose solution or a 6% sucrose or fructose solution. All samples were made up in low sodium buffer pH 7.1. In order to aid dispersion, solutions can be made up in 0.1% ethanol.
# The solutions were dispensed in 20 ml volumes into 1 oz. sample cups and served to the subjects at room temperature. All samples were presented in randomized counterbalanced order to reduce response bias. Further, two sessions of testing may be used to check panel precision.
# Subjects tasted each sample individually and rate sweetness intensity on the line scale prior to tasting the next sample. All samples were expectorated. Subjects may retaste the samples but can only use the volume of sample given. Subjects must rinse with water between samples. Eating an unsalted cracker between samples may be required depending on the samples tasted.
# The scores for each sample were averaged across subjects and standard error was calculated. The dose-response curve was plotted graphically, and this may be used to ensure the panel is rating accurately; i.e., increasing the concentration of sucralose should correspond to increased average scores for sweetness. […]
# [2] = tested on: Human Panelists; experiment: Paired comparison test with Compound D5 in product prototype (drinks)
# Protocol: (§1) Test samples containing experimental compounds are presented in pairs to the panelist and they are asked to determine which of the sample is sweeter. A group of 10-16 or more panelists participated in each test. Subjects refrained from eating or drinking (except water) for at least 1 hour prior to the test. Subjects rinsed with water several times to clean the mouth.
# (§2) In one paired comparison test, the panelist is presented with two different samples and asked to identify the sample which is sweeter. The samples within a paired comparison test are presented in a randomized, counterbalanced order. Panelists have up to a 1 minute delay between taste tests to clear the mouth of any tastes.
# (§3) Binomial probability tables are used to determine the probability of the correct number of responses occurring for each test at alpha=0.05
# Human panelists evaluated various drinks (e.g., tea, coffee, Kool-Aid) in paired comparison taste test procedure.
# [3] = tested on: Human Panelists; experiment: Sweet flavor enhancement, human panelists, paired comparison test
# Protocol: as §1
# All samples are prepared with ethanol to ensure dispersion of the compound in solution. This includes samples without compound; all solutions are balanced for 0.1% ethanol.
# Samples are also prepared with low sodium buffer (pH 7.1) in place of water. Buffer contains 0.952 g of KCl, 5.444 g of Na2HPO4, and 0.952 g of KH2PO4 in 40 L of DIUF water. Sample volumes are usually 20 ml.
# as §2, §3
compound,measurement,setting,value
OC[C@H]1O[C@@](CO)(O[C@H]2O[C@H](CO)[C@@H](O)[C@H](O)[C@H]2O)[C@@H](O)[C@@H]1O [Sucrose],Average Sweetness,[1]; 6% Sucrose,6.6
same,Average Sweetness,[1]; 8% Sucrose,8.1
same,Average Sweetness,[1]; 10% Sucrose,9.8
same,Average Sweetness,[1]; 12% Sucrose,11.0
same,"Sample selected as sweeter by panelists, Total","[2]; 8% Sucrose Brewed Neutral Black Tea vs 4% Sucrose Brewed Neutral Black Tea + 30.6 μM Compound D5, n = 39",22
same,"Sample selected as sweeter by panelists, Total","[2]; 8% Sucrose Coffee Drink vs 4% Sucrose Coffee Drink + 23.65 μM Compound D5, n = 39",20
same,"Sample selected as sweeter by panelists, Total","[2]; 10% Sucrose Cherry Kool-Aid vs 5% Sucrose Cherry Kool-Aid + 41.7 μM Compound D5, n = 33",18
same,"Sample selected as sweeter by panelists, Total","[2]; 10% Sucrose Lemonade Kool-Aid vs 5% Sucrose Lemonade Kool-Aid + 41.7 μM Compound D5, n = 48",27
same,"Sample selected as sweeter by panelists, Total","[3]; 1% Sucrose vs LSB + 27.8 μM Compound D5, n = 45",43
same,"Sample selected as sweeter by panelists, Total","[3]; 1% Sucrose vs LSB + 27.8 μM Compound Y5, n = 45",44
same,"Sample selected as sweeter by panelists, Total","[3]; 1% Sucrose vs LSB + 111.3 μM Compound D5, n = 29",21
same,"Sample selected as sweeter by panelists, Total","[3]; 10% Sucrose vs 6% Sucrose + 24.9 μM Compound E5, n = 39",13
same,"Sample selected as sweeter by panelists, Total","[3]; 10% Sucrose vs 6% Sucrose + 26.8 μM Compound L6, n = 45",14
same,"Sample selected as sweeter by panelists, Total","[3]; 10% Sucrose vs 6% Sucrose + 26.9 μM Compound A6, n = 45",9
same,"Sample selected as sweeter by panelists, Total","[3]; 10% Sucrose vs 6% Sucrose + 26.9 μM Compound Q5, n = 48",13
same,"Sample selected as sweeter by panelists, Total","[3]; 10% Sucrose vs 6% Sucrose + 26.9 μM Compound R5, n = 42",16
same,"Sample selected as sweeter by panelists, Total","[3]; 10% Sucrose vs 6% Sucrose + 27.8 μM Compound D5, n = 45",13
same,"Sample selected as sweeter by panelists, Total","[3]; 10% Sucrose vs 6% Sucrose + 27.8 μM Compound Y5, n = 11 (11 panelists × 2 reps)",8
same,"Sample selected as sweeter by panelists, Total","[3]; 10% Sucrose vs 6% Sucrose + 27.9 μM Compound K5, n = 45",11
same,"Sample selected as sweeter by panelists, Total","[3]; 10% Sucrose vs 6% Sucrose + 28.9 μM Compound E6, n = 39",18
